≈ marks a conversion by molar mass, not a printed value.
Assays:
Format in all cases: cell-based
[1] = system: membrane permeabilized E. coli; settings: for enhancement of the activity of ciprofloxacin: at 25 μM
[2] = system: E. coli ΔrecB strains
[3] = system: E. coli strain MG1655 and mutated strains; experiment: microbe, parasite or virus in culture
[4] = system: E. coli MG1655 loss of function strains; experiment: microbe, parasite or virus in culture
[5] = system: E. coli wild-type
[6] = system: E. coli strains RTC0141-RTC0148
[7] = system: P. aeruginosa strains RTC1014-RTC1019

Cn1c2ccccc2n2c3cnccc3c(=O)c(C#N)c12 [Formula IIc]
enhancement of the activity of ciprofloxacin [1]: enhanced the activity of ciprofloxacin

NCCCCCCNc1ccnc2cc(Cl)ccc12 [Formula III]
ciprofloxacin sensitization [1]: enhanced ciprofloxacin sensitivity

CO[C@@]12[C@H](COC(N)=O)C3=C(C(=O)C(C)=C(N)C3=O)N1C[C@@H]1N[C@@H]12 [Mitomycin C]
Mitomycin C MIC lower compared to recB+ strains [2]: about 8 fold

Cn1c2ccccc2n2c3ncccc3c(=O)c(C#N)c12 [Formula IIb]
enhancement of the activity of ciprofloxacin [1]: enhanced the activity of ciprofloxacin

Nc1ccc2noc3c2c1C(=O)c1ccccc1-3 [Formula Ia]
MIC shift in ciprofloxacin responsiveness [1]: 10 ×

O=C(O)c1cn(C2CC2)c2cc(N3CCNCC3)c(F)cc2c1=O [ciprofloxacin]
ciprofloxacin MIC, gyrA S83Δ [3]: 0.25 mg/L | MIC ([3]; Escherichia coli, MG1655, read-out: ciprofloxacin MIC): < 0.001 mg/L | ciprofloxacin MIC, gyrA S83Δ [4]: 0.25 mg/L | MIC ([4]; Escherichia coli, MG1655, read-out: ciprofloxacin MIC, gyrA S83L): 0.45 mg/L (≈ 1.36 µM) | cells killed [5]: 99%

B1: lambda gam: protein used by λ phage to inhibit E. coli RecB; overexpressed from an arabinose-inducible vector (protein, UniProt P03702 1-138, looked up)
Host-nuclease inhibitor …: MDINTETEIKQKHSLTPFPVFLISPAFRGRYFHSYFRSSAMNAYYIQDRLEAQSWARHYQQLAREEKEAELADDMEKGLPQHLFESLCIDHLQRHGASKKSITRAFDDDVEFQERMAEHIRYMVETIAHHQVDIDSEV
decrease in the ciprofloxacin IC50 on overexpression of lambda gam [6]: 5-8 fold | effect of lambda gam overexpression on ciprofloxacin sensitivity [6]: no effect | decrease in the ciprofloxacin MIC on overexpression of lambda gam [7]: 2-4 fold | effect of lambda gam overexpression on ciprofloxacin sensitivity [7]: no effect
